Measured values published in patent US8603751B2, “Mycobacterial disease detection, treatment, and drug discovery” (priority 2006, dated 2013).
“Also recorded” adds a separate entry of the source.

Key:
Msm cells = assay: Effect of screened compounds on cell viability (control plates of the M-PFC screen); details: at high concentrations
[1] = biological target: DevS(HKD)-DevR interaction (Mycobacterium tuberculosis, UniProt P9WMF9); assay: M-PFC TRIM plate assay of the DevS(HKD)-DevR interaction; type: cell-based; details: 10 and 25 μg/mL, TRIM plates, FIG. 12
Description: Additionally, whether inhibition of DevR dimerization effected upstream interactions with DevR and DevS (Rv3132c), a corresponding sensor histidine kinase involved in the Mycobacterium dormancy pathway was investigated.

[2] = biological target: T1, Esat6-Cfp10 (Rv3875-Rv3874) interaction (Mycobacterium tuberculosis, UniProt P9WNK5+P9WNK7); assay: M-PFC counter-screen with the Esat6-Cfp10 interacting pair; type: cell-based
T1 construct: The complete open reading frames (ORF) were cloned into pUAB100 and pUAB200; Gly10 linker + mDHFR fragment F[1,2]; Gly10 linker + mDHFR fragment F[3]; expressed in transfected cells; host or cells: Mycobacterium smegmatis

Msm = details: on 7H11
Mycobacterial cells = assay: Viability of Mycobacterial cells with rapamycin; details: rapamycin concentrations as high as 200 μg/mL

Sequence of DevS(HKD)-DevR interaction (P9WMF9 whole entry, looked up): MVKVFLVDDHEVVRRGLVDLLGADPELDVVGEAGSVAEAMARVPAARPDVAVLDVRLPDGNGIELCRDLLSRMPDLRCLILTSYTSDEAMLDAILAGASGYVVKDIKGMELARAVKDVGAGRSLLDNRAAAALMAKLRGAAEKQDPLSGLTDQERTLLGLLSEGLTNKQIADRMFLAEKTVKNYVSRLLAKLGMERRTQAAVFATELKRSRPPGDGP
T1 sequence (P9WNK7 whole entry, the tested form may be a part): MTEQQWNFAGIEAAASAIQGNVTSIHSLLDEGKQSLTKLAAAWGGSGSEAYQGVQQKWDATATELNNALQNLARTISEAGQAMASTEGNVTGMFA
T1 sequence (P9WNK5 whole entry, the tested form may be a part): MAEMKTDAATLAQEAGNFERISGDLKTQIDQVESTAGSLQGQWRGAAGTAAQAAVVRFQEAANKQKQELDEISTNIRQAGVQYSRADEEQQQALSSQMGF

For `Cl.Cn1c(=N)n(CC(=O)c2cc(C(C)(C)C)c(O)c(C(C)(C)C)c2)c2ccccc21` [1-(3,5-di-tert-butyl-4-hydroxyphenyl)-2-(2-imino-3-methyl-2,3-dihydro-1H-benzimidazol-1-yl)ethanone hydrochloride], the “effect on cell viability” value (Msm cells) was “effect cell viability at high concentrations”.
In the case of `CC(=O)NS(=O)(=O)c1ccc(NC(=O)CCc2ccccc2)cc1` [N-(4-[(acetylamino)sulfonyl]phenyl)-3-phenylpropanamide], the “disruption of the DevS(HKD)-DevR interaction” value [1] is reported as “disrupt the DevS(HKD)-DevR interaction; also recorded: capable of disrupting the DevS(HKD)-DevR interaction” and the “effect on the Esat6-Cfp10 interaction” value [2] is reported as “unaffected”.
With `COc1cc(Cc2cnc(N)nc2N)cc(OC)c1OC` [TRIM, trimethoprim] the “TRIM concentration to which Msm is sensitive” value (Msm) was ~40 µg/mL.
For `CO[C@H]1C[C@@H]2CC[C@@H](C)[C@@](O)(O2)C(=O)C(=O)N2CCCC[C@H]2C(=O)O[C@H]([C@H](C)C[C@@H]2CC[C@@H](O)[C@H](OC)C2)CC(=O)[C@H](C)/C=C(\C)[C@@H](O)[C@@H](OC)C(=O)[C@H](C)C[C@H](C)/C=C/C=C/C=C/1C` [rapamycin], the “viability of the Mycobacterial cells” value (Mycobacterial cells) was “not effected”.
